Test results: article PMC8965496, “Combating multidrug resistance and metastasis of breast cancer by endoplasmic reticulum stress and cell-nucleus penetration enhanced immunochemotherapy” (Theranostics, 2022)

System: MCF-7/ADR drug resistant cell line
Assay: IC50 of DOX against drug-resistant cell line
Format: cell-based
Details: ratio MCF-7/ADR to MCF-7

IC50 in MCF-7/ADR cells relative to MCF-7 cells: 108.07 fold
Compound: COc1cccc2c1C(=O)c1c(O)c3c(c(O)c1C2=O)C[C@@](O)(C(=O)CO)C[C@@H]3O[C@H]1C[C@H](N)[C@H](O)[C@H](C)O1 [DOX, doxorubicin]
